Measured values: PubChem BioAssay AID1963833 (Molecular Pharmacology Branch, DTP, NCI, 2024)

Tested on: 883617-216-R-J1-PDC complex spheroid viability
Assay: Anticancer human tumor 883617-216-R-J1-PDC patient-derived bladder carcinoma cell line growth inhibition [POLQ]
Settings: for IC50: curve of first compound; for viability, T/C: stronger effect = lower value
In short: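 Patient-derived tumour cells were co-cultured with HUVEC and mesenchymal stem cells as multicellular spheroids at 37 °C. They were treated with POLQ inhibitors (novobiocin, ART-558, RP6685) alone or combined with other agents. Top concentrations were at or near clinical Cmax (otherwise 10 microM; SN-38 at 1 microM), decreasing in half-log steps.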

[1] = second compound 0.0316 µM, first compound 0.0316 µM
[2] = second compound 0.0316 µM, first compound 0.1 µM
[3] = second compound 0.0316 µM, first compound 0.316 µM
[4] = second compound 0.0316 µM, first compound 1 µM
[5] = second compound 0.0316 µM, first compound 3.16 µM
[6] = second compound 0.0316 µM, first compound 10 µM
[7] = second compound 0.1 µM, first compound 0.0316 µM
[8] = second compound 0.1 µM, first compound 0.1 µM
[9] = second compound 0.1 µM, first compound 0.316 µM
[10] = second compound 0.1 µM, first compound 1 µM
[11] = second compound 0.1 µM, first compound 3.16 µM
[12] = second compound 0.1 µM, first compound 10 µM
[13] = second compound 0.316 µM, first compound 0.0316 µM
[14] = second compound 0.316 µM, first compound 0.1 µM
[15] = second compound 0.316 µM, first compound 0.316 µM
[16] = second compound 0.316 µM, first compound 1 µM
[17] = second compound 0.316 µM, first compound 3.16 µM
[18] = second compound 0.316 µM, first compound 10 µM
[19] = second compound 1 µM, first compound 0.0316 µM
[20] = second compound 1 µM, first compound 0.1 µM
[21] = second compound 1 µM, first compound 0.316 µM
[22] = second compound 1 µM, first compound 1 µM
[23] = second compound 1 µM, first compound 3.16 µM
[24] = second compound 1 µM, first compound 10 µM
[25] = second compound 3.16 µM, first compound 0.0316 µM
[26] = second compound 3.16 µM, first compound 0.1 µM
[27] = second compound 3.16 µM, first compound 0.316 µM
[28] = second compound 3.16 µM, first compound 1 µM
[29] = second compound 3.16 µM, first compound 3.16 µM
[30] = second compound 3.16 µM, first compound 10 µM
[31] = second compound 10 µM, first compound 0.0316 µM
[32] = second compound 10 µM, first compound 0.1 µM
[33] = second compound 10 µM, first compound 0.316 µM
[34] = second compound 10 µM, first compound 1 µM
[35] = second compound 10 µM, first compound 3.16 µM
[36] = second compound 10 µM, first compound 10 µM
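Further: spheroids exposed to compounds for seven days before readout.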
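Wherever viability, T/C is given: 100% = DMSO vehicle control viability.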

Structure (SMILES): C#Cc1c(F)ccc2cc(O)cc(-c3ncc4c(N5CC6CCC(C5)N6)nc(OCC56CCCN5CC(F)C6)nc4c3F)c12 (stereo unspecified) + COC1C(OC(N)=O)C(O)C(Oc2ccc3c(O)c(NC(=O)c4ccc(O)c(CC=C(C)C)c4)c(=O)oc3c2C)OC1(C)C
- IC50 (second compound 0.0316 µM): > 10 µM
- IC50 (second compound 0.1 µM): > 10 µM
- IC50 (second compound 0.316 µM): > 10 µM
- IC50 (second compound 1 µM): > 10 µM
- IC50 (second compound 3.16 µM): > 10 µM
- IC50 (second compound 10 µM): > 10 µM
- viability, T/C [1]: 90.3%
- viability, T/C [2]: 108%
- viability, T/C [3]: 96.2%
- viability, T/C [4]: 97.9%
- viability, T/C [5]: 81.1%
- viability, T/C [6]: 75%
- viability, T/C [7]: 121%
- viability, T/C [8]: 100%
- viability, T/C [9]: 90.4%
- viability, T/C [10]: 83.4%
- viability, T/C [11]: 87.3%
- viability, T/C [12]: 78.2%
- viability, T/C [13]: 96.1%
- viability, T/C [14]: 114%
- viability, T/C [15]: 90%
- viability, T/C [16]: 91%
- viability, T/C [17]: 70.3%
- viability, T/C [18]: 67%
- viability, T/C [19]: 99.7%
- viability, T/C [20]: 98.8%
- viability, T/C [21]: 83.8%
- viability, T/C [22]: 91.4%
- viability, T/C [23]: 81.9%
- viability, T/C [24]: 86.3%
- viability, T/C [25]: 98.6%
- viability, T/C [26]: 93.6%
- viability, T/C [27]: 95.5%
- viability, T/C [28]: 94.4%
- viability, T/C [29]: 84.4%
- viability, T/C [30]: 76.3%
- viability, T/C [31]: 85.8%
- viability, T/C [32]: 101%
- viability, T/C [33]: 101%
- viability, T/C [34]: 85.7%
- viability, T/C [35]: 91.8%
- viability, T/C [36]: 73.6%

Structure (SMILES): C=CC(=O)N1CCN(c2nc(=O)n(-c3c(C)ccnc3C(C)C)c3nc(-c4c(O)cccc4F)c(F)cc23)C(C)C1 (stereo unspecified) + COC1C(OC(N)=O)C(O)C(Oc2ccc3c(O)c(NC(=O)c4ccc(O)c(CC=C(C)C)c4)c(=O)oc3c2C)OC1(C)C
- IC50 (second compound 0.0316 µM): > 10 µM
- IC50 (second compound 0.1 µM): > 10 µM
- IC50 (second compound 0.316 µM): > 10 µM
- IC50 (second compound 1 µM): > 10 µM
- IC50 (second compound 3.16 µM): > 10 µM
- IC50 (second compound 10 µM): > 10 µM
- viability, T/C [1]: 79.2%
- viability, T/C [2]: 77.5%
- viability, T/C [3]: 70.8%
- viability, T/C [4]: 98.3%
- viability, T/C [5]: 81.7%
- viability, T/C [6]: 87.6%
- viability, T/C [7]: 72.5%
- viability, T/C [8]: 68.2%
- viability, T/C [9]: 67.3%
- viability, T/C [10]: 81.8%
- viability, T/C [11]: 102%
- viability, T/C [12]: 80.5%
- viability, T/C [13]: 70.2%
- viability, T/C [14]: 78.7%
- viability, T/C [15]: 68.5%
- viability, T/C [16]: 73.7%
- viability, T/C [17]: 85.5%
- viability, T/C [18]: 75.9%
- viability, T/C [19]: 81.8%
- viability, T/C [20]: 65.9%
- viability, T/C [21]: 73.2%
- viability, T/C [22]: 78.2%
- viability, T/C [23]: 89.9%
- viability, T/C [24]: 76.5%
- viability, T/C [25]: 78.3%
- viability, T/C [26]: 62.4%
- viability, T/C [27]: 79.3%
- viability, T/C [28]: 69.5%
- viability, T/C [29]: 79%
- viability, T/C [30]: 76.8%
- viability, T/C [31]: 68%
- viability, T/C [32]: 60.6%
- viability, T/C [33]: 76.5%
- viability, T/C [34]: 85.5%
- viability, T/C [35]: 84.2%
- viability, T/C [36]: 91.4%

Structure (SMILES): CC(C)n1c(=O)n(C)c2cnc3cc(F)c(-c4ccc(OCCCN5CCCCC5)nc4)cc3c21 + COC1C(OC(N)=O)C(O)C(Oc2ccc3c(O)c(NC(=O)c4ccc(O)c(CC=C(C)C)c4)c(=O)oc3c2C)OC1(C)C
- IC50 (second compound 0.0316 µM): > 10 µM
- IC50 (second compound 0.1 µM): > 10 µM
- IC50 (second compound 0.316 µM): > 10 µM
- IC50 (second compound 1 µM): > 10 µM
- IC50 (second compound 3.16 µM): > 10 µM
- IC50 (second compound 10 µM): > 10 µM
- viability, T/C [1]: 92.2%
- viability, T/C [2]: 94.5%
- viability, T/C [3]: 97.4%
- viability, T/C [4]: 93.1%
- viability, T/C [5]: 88.2%
- viability, T/C [6]: 65.1%
- viability, T/C [7]: 99%
- viability, T/C [8]: 103%
- viability, T/C [9]: 93.9%
- viability, T/C [10]: 104%
- viability, T/C [11]: 91.8%
- viability, T/C [12]: 82.6%
- viability, T/C [13]: 97%
- viability, T/C [14]: 92.2%
- viability, T/C [15]: 97.3%
- viability, T/C [16]: 101%
- viability, T/C [17]: 97%
- viability, T/C [18]: 76.3%
- viability, T/C [19]: 102%
- viability, T/C [20]: 103%
- viability, T/C [21]: 108%
- viability, T/C [22]: 91.2%
- viability, T/C [23]: 94.1%
- viability, T/C [24]: 84.5%
- viability, T/C [25]: 109%
- viability, T/C [26]: 108%
- viability, T/C [27]: 110%
- viability, T/C [28]: 95.7%
- viability, T/C [29]: 95.9%
- viability, T/C [30]: 81%
- viability, T/C [31]: 106%
- viability, T/C [32]: 97.3%
- viability, T/C [33]: 102%
- viability, T/C [34]: 98.3%
- viability, T/C [35]: 78.9%
- viability, T/C [36]: 72.8%
